Results: patent publication US10533002B2, “Thiophene- or furan-substituted isothiazoline compounds as pesticides” (BOEHRINGER INGELHEIM ANIMAL HEATLH USA INC., priority 2013, dated 2020)

Columns and labels:
[1] = test system: Southern Armyworm (Spodoptera eridania); assay: Southern armyworm lima bean foliar spray test (B.5); format: in vivo; conditions: 96 h, larvae on sprayed lima bean plants, 4 days after treatment, read-out: mortality in comparison with untreated controls
Procedure: B.5 Southern Armyworm (Spodoptera eridania)
The active compounds were formulated by a Tecan liquid handler in 100% cyclohexanone as a 10,000 ppm solution supplied in tubes. The 10,000 ppm solution was serially diluted in 100% cyclohexanone to make interim solutions. These served as stock solutions for which final dilutions were made by the Tecan in 50% acetone:50% water (v/v) into 5 or 10 ml glass vials. A nonionic surfactant (Kinetic®) was included in the solution at a volume of 0.01% (v/v). The vials were then inserted into an automated electrostatic sprayer equipped with an atomizing nozzle for application to plants/insects.
Lima bean plants (variety Sieva) were grown 2 plants to a pot and selected for treatment at the 1st true leaf stage. Test solutions were sprayed onto the foliage by an automated electrostatic plant sprayer equipped with an atomizing spray nozzle. The plants were dried in the sprayer fume hood and then removed from the sprayer. Each pot was placed into perforated plastic bags with a zip closure. About 10 to 11 armyworm larvae were placed into the bag and the bags zipped closed. […] Mortality and reduced feeding were assessed 4 days after treatment, compared to untreated control plants.

[2] = test system: Diamond Back Moth (Plutella xylostella); assay: Diamond back moth leaf-dip test (B.1); format: in vivo; conditions: cabbage leaves dipped, 3rd instar larvae, 72 hours after treatment, read-out: mortality in comparison with untreated controls
Procedure: B.1 Diamond Back Moth (Plutella xylostella)
The active compound was dissolved at the desired concentration in a mixture of 1:1 (vol:vol) distilled water:aceteone. Surfactant (Kinetic HV) was added at a rate of 0.01% (vol/vol). The test solution was prepared at the day of use.
Leaves of cabbage were dipped in test solution and air-dried. Treated leaves were placed in petri dishes lined with moist filter paper and inoculated with ten 3rd instar larvae. Mortality was recorded 72 hours after treatment. Feeding damages were also recorded using a scale of 0-100%.

[3] = test system: Vetch Aphid (Megoura viciae); assay: Vetch aphid broad bean leaf disk test (B.6); format: in vivo; conditions: foliar, 120 h, adult aphids on sprayed broad bean leaf disks, 5 days, read-out: mortality in comparison with untreated controls
Procedure: B.6 Vetch Aphid (Megoura viciae)
For evaluating control of vetch aphid (Megoura viciae) through contact or systemic means the test unit consisted of 24-well-microtiter plates containing broad bean leaf disks.
The compounds were formulated using a solution containing 75% v/v water and 25% v/v DMSO. Different concentrations of formulated compounds were sprayed onto the leaf disks at 2.5 μl, using a custom built micro atomizer, at two replications. After application, the leaf disks were air-dried and 5-8 adult aphids placed on the leaf disks inside the microtiter plate wells. The aphids were then allowed to suck on the treated leaf disks and incubated at about 23±1° C. and about 50±5% relative humidity for 5 days. Aphid mortality and fecundity was then visually assessed.

[4] = test system: Tobacco Budworm (Heliothis virescens); assay: Tobacco budworm microtiter diet test (B.7); format: in vivo; conditions: 120 h, egg and larval mortality, sprayed insect diet, 5 days, read-out: mortality in comparison with untreated controls
Procedure: B.7 Tobacco Budworm (Heliothis virescens)
For evaluating control of tobacco budworm (Heliothis virescens) the test unit consisted of 96-well-microtiter plates containing an insect diet and 15-25 H. virescens eggs. The compounds were formulated using a solution containing 75% v/v water and 25% v/v DMSO. Different concentrations of formulated compounds were sprayed onto the insect diet at 10 μl, using a custom built micro atomizer, at two replications.
After application, microtiter plates were incubated at about 28±1° C. and about 80±5% relative humidity for 5 days. Egg and larval mortality was then visually assessed.

[5] = test system: Boll Weevil (Anthonomus grandis); assay: Boll weevil microtiter diet test (B.8); format: in vivo; conditions: 120 h, egg and larval mortality, sprayed insect diet, 5 days, read-out: mortality in comparison with untreated controls
Procedure: B.8 Boll Weevil (Anthonomus grandis)
For evaluating control of boll weevil (Anthonomus grandis) the test unit consisted of 96-well-microtiter plates containing an insect diet and 5-10 A. grandis eggs.
The compounds were formulated using a solution containing 75% v/v water and 25% v/v DMSO. Different concentrations of formulated compounds were sprayed onto the insect diet at 5 μl, using a custom built micro atomizer, at two replications.
After application, microtiter plates were incubated at about 25±1° C. and about 75±5% relative humidity for 5 days. Egg and larval mortality was then visually assessed.

[6] = test system: Mediterranean Fruitfly (Ceratitis capitata); assay: Mediterranean fruitfly microtiter diet test (B.3); conditions: 120 h, read-out: mortality in comparison with untreated controls
[7] = test system: Green Peach Aphid (Myzus persicae); assay: Green peach aphid artificial diet systemic test (B.2); format: in vivo; conditions: 72 h, adult aphids on treated artificial diet, 3 days, read-out: mortality in comparison with untreated controls
Excerpt: B.2 Green Peach Aphid (Myzus persicae)
For evaluating control of green peach aphid (Myzus persicae) through systemic means the test unit consisted of 96-well-microtiter plates containing liquid artificial diet under an artificial membrane.
The compounds were formulated using a solution containing 75% v/v water and 25% v/v DMSO. Different concentrations of formulated compounds were pipetted into the aphid diet, using a custom built pipetter, at two replications.
After application, 5-8 adult aphids were placed on the artificial membrane inside the microtiter plate wells. The aphids were then allowed to suck on the treated aphid diet and incubated at about 23±1° C. and about 50±5% relative humidity for 3 days. Aphid mortality and fecundity was then visually assessed.

Cc1cc(C2=NSC(c3cc(Cl)c(Cl)c(Cl)c3)(C(F)(F)F)C2)sc1C(=O)OC(C)(C)C (stereo not shown) [Compound 1-1, tert-Butyl 3-methyl-5-[5-(3,4,5-trichlorophenyl)-5-(trifluoromethyl)-4H-isothiazol-3-yl]thiophene-2-carboxylate]
≥ 75%: mortality at 300 ppm [1]

Cc1cc(C2=NSC(c3cc(Cl)c(Cl)c(Cl)c3)(C(F)(F)F)C2)sc1C(=O)NCC(F)(F)F (stereo not shown) [Compound 1-7, 3-Methyl-5-[5-(3,4,5-trichlorophenyl)-5-(trifluoromethyl)-4H-isothiazol-3-yl]-N-(2,2,2-trifluoroethyl)thiophene-2-carboxamide]
≥ 75%: mortality at 500 ppm [2] | mortality at 2500 ppm [3] | mortality at 2500 ppm [4] | mortality at 2500 ppm [5] | mortality at 2500 ppm [6]

O=C(O)c1sc(C2=NSC(c3cc(Cl)c(F)c(Cl)c3)(C(F)(F)F)C2)cc1C(F)(F)F (stereo not shown) [Compound 1-9, 5-[5-(3,5-Dichloro-4-fluoro-phenyl)-5-(trifluoromethyl)-4H-isothiazol-3-yl]-3-(trifluoromethyl)-thiophene-2-carboxylic acid]
≥ 75%: mortality at 2500 ppm [4] | mortality at 2500 ppm [5]

O=C(NCc1ncccn1)c1sc(C2=NSC(c3cc(Cl)c(F)c(Cl)c3)(C(F)(F)F)C2)cc1C(F)(F)F (stereo not shown) [Compound 1-12, 5-[5-(3,5-Dichloro-4-fluoro-phenyl)-5-(trifluoromethyl)-4H-isothiazol-3-yl]-N-(pyrimidin-2-ylmethyl)-3-(trifluoromethyl)thiophene-2-carboxamide]
≥ 75%: mortality at 2500 ppm [7] | mortality at 2500 ppm [3] | mortality at 2500 ppm [4] | mortality at 2500 ppm [5] | mortality at 2500 ppm [6]
